The values that follow come from article PMC2689245, “Purification and characterization of a serine protease (CESP) from mature coconut endosperm” (BMC Research Notes, 2009).

The assay concerns T1, CESP (coconut endosperm protease).
T1 construct: native, purified from fully matured coconut kernel (endosperm)
The assay can be described thus: p-nitroaniline release at […] nm. It is filed as biochemical, Cocos nucifera. The conditions noted are these: 100 mM Tris HCl pH 8.5, 37 °C.

By Km is commonly meant the substrate concentration at which the rate is half of its maximum. In the case of `N=C(N)NCCCC(NC(=O)c1ccccc1)C(=O)Nc1ccc([N+](=O)[O-])cc1` (racemic) [BAPNA], the Km amounted to 200 µM.
